Measurements from article PMC7481357, “N-terminal Myristoylation Enhanced the Antimicrobial Activity of Antimicrobial Peptide PMAP-36PW” (Frontiers in Cellular and Infection Microbiology, 2020).
Residues, ends and D or L forms follow the SMILES beside them. *: point of attachment. Myristoyl = CCCCCCCCCCCCCC(=O)*

Legend:
[1] = test system: S. aureus ATCC 25923 and P. aeruginosa GIM 1.551; assay: Thermal stability testing (boiling, then inhibition zone assay); assay type: cell-based, Staphylococcus aureus; Pseudomonas aeruginosa; conditions: boiled 120 min, 10 μg peptide, n = 5
Procedure: For thermal stability analysis, the Myr-36PW and peptides were boiled for 10, 20, 30, 40, 50, 60, 90, and 120 min as reported (Ebbensgaard et al., [2015]) with unboiled peptides as controls. Inhibition zone assay was performed against S. aureus ATCC 25923 and P. aeruginosa GIM 1.551. The inhibition zone diameters of peptides (10 μg, 1 μg/μL) were measured after incubation for 18 h at 37°C, and the inhibition curve was drawn.
Figure 3 Thermal stability determination of Myr-36PW by boiling. Thermal stability test of Myr-36PW and its analogs by boiling in different times (0, 10, 20, 30, 40, 50, 60, 90, and 120 min) via disk diffusion method. (A) (S. aureus ATCC 25923) and (B) (P. aeruginosa GIM 1.551) show the thermal stability curves of PMAP-36, PMAP-36PW, and Myr-36PW. The diameter of the standard disk is 6 mm. Data represent the mean ± SD (n = 5).

[2] = test system: S. aureus ATCC 25923; assay type: cell-based, Staphylococcus aureus; conditions: ATCC 25923, 1 h
Procedure: (§1) The effects of abiotic factors on the antibacterial activity of Myr-36PW were investigated by MIC assay (Xi et al., [2013]; Zhong et al., [2019]). S. aureus ATCC 25923 and P. aeruginosa GIM 1.551 overnight cultures were diluted to 1 × 10^6 CFU/mL, and the MICs of peptides in MHB with different concentration of physiological salts (150 mM NaCL, 2 mM CaCL2) were determined. And after the peptides incubated in 10% mice serum for 1 h at 37°C, MICs of peptides against S. aureus ATCC 25923 and P. aeruginosa GIM 1.551 were determined. The MICs in MHB in the absence of physiological salts and serum were used as the control group.
(§2) Salt and serum stability in vitro were indicated by MIC assay. The concentrations of NaCl and CaCl2 were physiological concentration. 10% mice serum was inactivated by heat treatment for 15 min at 60 ℃。The control group was measured in the absence of physiological salts or serum in MHB.

[3] = test system: P. aeruginosa GIM 1.551; assay: Inhibition zone assay (disk diffusion); assay type: cell-based, Pseudomonas aeruginosa; parameters: key: +, means the peptide has antibacterial activity; conditions: disk 10 μg peptide, 18 h at 37°C, * P < 0.05, ** P < 0.01 vs PMAP-36PW
Procedure: (§3) The inhibition zone assay was performed through the disk diffusion to evaluate the antimicrobial activity of Myr-36PW in vitro (Dunne et al., [2017]). The four above-mentioned bacterial strains were used as experimental strains, with L. monocytogenes CICC 21634 cultured in BHI medium, and P. aeruginosa GIM 1.551 cultured in TSB medium. The bacterial cells were cultured for 12 h at 37°C in the appropriate medium, and the bacterial cell suspension was spread on LB agar. The disks containing 10 μg of peptides (1 μg/μL) were attached to the solid medium and incubated at 37°C for 18 h. Finally the diameter of the inhibition zone was measured.

[4] = test system: P. aeruginosa GIM 1.551; assay type: cell-based, Pseudomonas aeruginosa; conditions: GIM 1.551, 1 h
Procedure: as §1, §2

[5] = Self-assembly of the peptide; assay type: physicochemical; conditions: stated in discussion, method not given
[6] = test system: S. typhimurium SL 1344; assay: Inhibition zone assay (disk diffusion); assay type: cell-based, Salmonella typhimurium; parameters: key: +, means the peptide has antibacterial activity; conditions: disk 10 μg peptide, 18 h at 37°C, * P < 0.05, ** P < 0.01 vs PMAP-36PW
Procedure: as §3

[7] = test system: S. aureus ATCC 25923; assay: Inhibition zone assay (disk diffusion); assay type: cell-based, Staphylococcus aureus; parameters: key: +, means the peptide has antibacterial activity; conditions: disk 10 μg peptide, 18 h at 37°C, * P < 0.05, ** P < 0.01 vs PMAP-36PW
Procedure: as §3

[8] = test system: P. aeruginosa GIM 1.551; assay: Pneumonia (lung infection) model; assay type: in vivo, BALB/c mice; conditions: intranasal 40 μL, 1 μg/μL, once a day for 3 days
Procedure: A pneumonia model in vivo was established as previously reported, with minor modification (Cortés et al., [2002]; Aoki et al., [2009]; Shi et al., [2018]). A total of 120 mice were randomly divided into two experimental models, one was intranasal inoculation of S. aureus ATCC 25923 (8.3 × 10^9 CFU/mL, 50 μL), and the other was intranasal inoculation of P. aeruginosa GIM 1.551 (4.5 × 10^10 CFU/mL, 50 μL). In the S. aureus ATCC 25923 model, 60 mice were divided into the following six groups of 10 mice each: no infection and treatment was used as a blank control, those with intranasal administration of PBS (40 μL) as the negative control group, those administered with benzylpenicillin potassium (40 μL, 1 μg/μL) as the positive control group, and the remaining three corresponded to Myr-36PW (40 μL, 1 μg/μL), PMAP-36PW (40 μL, 1 μg/μL), and PMAP-36 groups (40 μL, 1 μg/μL). The procedure for P. aeruginosa GIM 1.551 model is the same as for S. aureus ATCC 25923 model, except for the use of ampicillin sodium as the positive control. After 4 h post-inoculation, treatment was initiated, once a day for 3 days. The mice were sacrificed 24 h after the treatment. Changes in the appearance of lung tissues were observed, and lung tissues were removed aseptically from the mice. Half of the removed lung tissues were gently fixed in buffered formaldehyde solution for histopathological assessment by hematoxylin and eosin (H&E) staining. Pathological changes were scored to provide individual therapeutic status as described previously (Lei et al., [2018]). The remaining lung tissues were added with 1 mL of PBS, homogenized, and serially diluted. Bacterial CFU counts were determined.
Figure 8 Therapeutic effect for pneumonia by Myr-36PW in vivo. Mice were injected with S. aureus ATCC 25923 or P. aeruginosa GIM 1.551 to form pneumonia, and lungs (n = 5) in each group were collected on day 4 after intranasal bacterial inoculation. (A) Morphological changes of lung tissues. (B) Representative histopathological images of processed lung section with hematoxylin and eosin (H&E) staining. Images are presented at a magnification of 20×. a: inflammatory cell infiltration. b: the alveolar wall is thickened. c: alveolar wall congestion or alveolar hemorrhage. (C,D) Pathological scores of the lung sections. Scoring standard: 1 indicated no pathology, 2 indicated local pulmonary congestion and inflammatory cell infiltration, 3 indicated pulmonary congestion and a large number of inflammatory cell infiltration, affecting <20% of the section, 4 indicated pulmonary congestion and a large number of inflammatory cell infiltration, affecting 20–50% of the section, and 5 indicated pulmonary congestion and a large number of inflammatory cell infiltration, affecting >50% of the section. (E,F) Bacterial CFU in lung homogenate. BP is benzylpenicillin potassium, AS is ampicillin sodium. Data represent the mean ± SD of five individual experiments.

SMILES: CCCCCCCCCCCCCC(=O)NCC(=O)NCC(=O)N[C@@H](CCCNC(=N)N)C(=O)N[C@@H](Cc1ccccc1)C(=O)N[C@@H](CCCNC(=N)N)C(=O)N[C@@H](CCCNC(=N)N)C(=O)N[C@@H](CC(C)C)C(=O)N[C@@H](CCCNC(=N)N)C(=O)N[C@@H](CCCCN)C(=O)N[C@@H](CCCCN)C(=O)N[C@H](C(=O)N[C@@H](CCCNC(=N)N)C(=O)N[C@@H](CCCCN)C(=O)N[C@@H](CCCNC(=N)N)C(=O)N[C@@H](CC(C)C)C(=O)N[C@@H](CCCCN)C(=O)N[C@@H](CCCCN)C(=O)N[C@H](C(=O)NCC(=O)N[C@@H](CCCCN)C(=O)N[C@H](C(=O)N[C@@H](CC(C)C)C(=O)N[C@@H](CCCCN)C(=O)N[C@@H](Cc1c[nH]c2ccccc12)C(=O)N[C@H](C(=O)N[C@@H](Cc1c[nH]c2ccccc12)C(=O)N[C@@H](Cc1c[nH]c2ccccc12)C(=O)N[C@H](C(=O)N[C@H](C(=O)NCC(=O)N[C@@H](CO)C(=O)N[C@H](C(=O)N1CCC[C@H]1C(=O)N[C@@H](CC(C)C)C(=O)NCC(=O)N[C@@H](CS)C(=O)NCC(=O)O)[C@@H](C)CC)C(C)C)[C@@H](C)CC)[C@@H](C)CC)C(C)C)[C@@H](C)CC)[C@@H](C)O [Myr-36PW] (Myristoyl-GGRFRRLRKKTRKRLKKIGKVLKWIWWIVGSIPLGCG-OH; C-terminus assumed)
- Antimicrobial activity after boiling (thermal stability) [1]: retaining high bacterial inhibition
- MICs, Control [2]: 0.0156 µg/mL
- MICs, Serum [2]: 0.0313 µg/mL
- In vitro antibacterial activity (disk diffusion) [3]: +**
- MICs, CaCl2 [4]: 0.5 µg/mL
- MICs, Control [4]: 0.25 µg/mL
- MICs, NaCl [4]: 0.25 µg/mL
- MICs, Serum [4]: 0.5 µg/mL
- Self-assembly [5]: not self-assembly
- In vitro antibacterial activity (disk diffusion) [6]: +*
- In vitro antibacterial activity (disk diffusion) [7]: +**
- Lung histopathology (H&E) [8]: a complete alveolar structure, reduced blood stasis, and large reduction in inflammatory cells
- Bacterial CFU in lung homogenate ([8]; n = 5): decreased the P. aeruginosa GIM 1.551 CFU level compared with the PMAP-36PW group (P < 0.05)
- Pathological scores of the lung sections ([8]; n = 5): lower scores than PMAP-36PW group (P < 0.05)
